These results are taken from US20070259939A1, “USING NALTREXONE AS A MULTI-PURPOSE HEALTH SUPPLEMENT TO IMPROVE THE HUMAN CONDITION AND PREVENTING MULTIPLE DISEASES AND INFIRMITIES BY STIMULATING IMMUNE SYSTEM VITALITY AND ROBUSTNESS” (ACCELERATED TECHNOLOGIES, priority 2006, published 2007).

SMILES strings stand for the structures.

One series concerns beta-endorphins. The settings on record: small doses each night; following days; patients who initially had deficient endorphin levels; cited from earlier work.
The test system of a further series is alcohol cravings. Kind of series: inhibition of alcohol cravings by low dose naltrexone. The format is in vivo, human. The text has this: Naltrexone is already known to help cure addictive behaviors, such as alcoholism, opiate, narcotic and tobacco addiction. With respect to the treatment of alcohol addiction, naltrexone may be effective because it eliminates the neural positive reinforcement normally experienced in the brain by blocking the receptors that provide the stimulatory effect felt from alcohol. As a result of the lack of positive reinforcement, there is no internal incentive to drink alcohol. In a similar manner, in another embodiment of the invention, the daily administration of low dose naltrexone may greatly reduce or eliminate the tendency to engage in addictive behavior by preventing its onset. This may be accomplished by diminishing any potential internal rewards for using chemical substances in the first place. […] The diminished desire for alcohol resulting from a low dose of naltrexone may be effective for more than 24 hours, thus for example a dose administered at 7:00 pm one evening may continue to inhibit alcohol cravings throughout the following evening. A person in need of curbing an alcoholic appetite may take a pill, either before or along with the drink, and discover no desire for a second or third drink. To further eliminate an alcoholic appetite, a series of 1.5 mg naltrexone doses may be taken without alcohol, starting for example at about 6:00 pm.

In a further series the test system is cancer patients. The settings on record: low dose naltrexone; cited from earlier work.
For series [1] the following is noted: low dose levels; cited from earlier work.

With `O=C1CC[C@@]2(O)[C@H]3Cc4ccc(O)c5c4[C@@]2(CCN3CC2CC2)[C@H]1O5` [naltrexone], in the series with beta-endorphins, the “increase in beta-endorphins circulating in the blood” value was 200-300%. In the series on alcohol cravings (low dosage, around 4.5 mg), the “effect on alcohol cravings” value was “greatly inhibit alcohol cravings”. In addition, in the series on alcohol cravings (low dose of naltrexone), the “duration of diminished desire for alcohol” value was “more than 24 hours”. In the series on cancer patients, the “cancer patients with a positive effect (for example stopping the spread of tumors)” value is listed as at most 65% and the “cancer patients with remission” value is 30%. For the same molecule, the side effects entry in series [1] is on record as “not known to have any important side effects”.
